From ChEMBL document CHEMBL1134725, “2-(Anilinomethyl)imidazolines as alpha(1)-adrenoceptor agonists: the identification of alpha(1A) subtype selective 2'-carboxylic acid esters and amides” (Bioorg Med Chem Lett, 2001)
pEC50, pIC50: −log10 of the molar value.

Legend:
[1] = biological target: T1, Alpha-1A adrenergic receptor (Homo sapiens) (UniProt P35348); test: Efficacy against alpha 1A adrenoceptor in human expressed as phenylephrine response at the dose of 40 uM; type: functional
T1 sequence (whole entry): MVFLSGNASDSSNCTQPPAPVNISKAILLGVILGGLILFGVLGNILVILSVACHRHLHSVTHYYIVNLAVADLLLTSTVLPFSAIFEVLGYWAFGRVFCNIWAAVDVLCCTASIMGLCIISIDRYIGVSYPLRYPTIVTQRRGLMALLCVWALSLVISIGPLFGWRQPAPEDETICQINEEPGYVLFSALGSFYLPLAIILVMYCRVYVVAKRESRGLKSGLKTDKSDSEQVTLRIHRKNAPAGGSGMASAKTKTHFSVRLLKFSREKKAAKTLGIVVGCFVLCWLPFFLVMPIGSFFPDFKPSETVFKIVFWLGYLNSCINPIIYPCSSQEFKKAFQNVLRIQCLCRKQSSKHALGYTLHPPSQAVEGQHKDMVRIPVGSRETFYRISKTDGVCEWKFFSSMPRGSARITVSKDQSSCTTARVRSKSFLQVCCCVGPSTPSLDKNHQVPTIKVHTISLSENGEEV

[2] = biological target: T2, Alpha-1D adrenergic receptor (Homo sapiens, UniProt P25100); test: Potency against cloned human alpha 1D-adrenoceptor expressed in rat-1 fibroblasts.; type: functional
T2 sequence (P25100 whole entry): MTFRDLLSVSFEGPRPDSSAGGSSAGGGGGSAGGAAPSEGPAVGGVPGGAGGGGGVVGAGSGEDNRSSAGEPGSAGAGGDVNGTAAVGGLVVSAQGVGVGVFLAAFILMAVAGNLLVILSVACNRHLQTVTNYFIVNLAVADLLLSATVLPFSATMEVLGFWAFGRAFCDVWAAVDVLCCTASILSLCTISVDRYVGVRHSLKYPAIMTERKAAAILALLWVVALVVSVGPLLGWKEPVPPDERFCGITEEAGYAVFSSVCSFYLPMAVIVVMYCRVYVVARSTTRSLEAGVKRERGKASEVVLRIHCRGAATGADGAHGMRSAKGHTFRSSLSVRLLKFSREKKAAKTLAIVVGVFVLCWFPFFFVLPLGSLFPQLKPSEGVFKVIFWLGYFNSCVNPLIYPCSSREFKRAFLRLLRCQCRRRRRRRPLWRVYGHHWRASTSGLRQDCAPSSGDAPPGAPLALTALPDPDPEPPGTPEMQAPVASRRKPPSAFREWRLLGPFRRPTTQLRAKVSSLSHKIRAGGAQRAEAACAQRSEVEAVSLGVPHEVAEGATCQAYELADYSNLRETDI

[3] = biological target: T3, Alpha-1B adrenergic receptor (Homo sapiens, UniProt P35368); test: Potency against cloned human alpha 1B adrenoceptor expressed in rat-1 fibroblasts.; type: functional
T3 sequence (P35368 whole entry): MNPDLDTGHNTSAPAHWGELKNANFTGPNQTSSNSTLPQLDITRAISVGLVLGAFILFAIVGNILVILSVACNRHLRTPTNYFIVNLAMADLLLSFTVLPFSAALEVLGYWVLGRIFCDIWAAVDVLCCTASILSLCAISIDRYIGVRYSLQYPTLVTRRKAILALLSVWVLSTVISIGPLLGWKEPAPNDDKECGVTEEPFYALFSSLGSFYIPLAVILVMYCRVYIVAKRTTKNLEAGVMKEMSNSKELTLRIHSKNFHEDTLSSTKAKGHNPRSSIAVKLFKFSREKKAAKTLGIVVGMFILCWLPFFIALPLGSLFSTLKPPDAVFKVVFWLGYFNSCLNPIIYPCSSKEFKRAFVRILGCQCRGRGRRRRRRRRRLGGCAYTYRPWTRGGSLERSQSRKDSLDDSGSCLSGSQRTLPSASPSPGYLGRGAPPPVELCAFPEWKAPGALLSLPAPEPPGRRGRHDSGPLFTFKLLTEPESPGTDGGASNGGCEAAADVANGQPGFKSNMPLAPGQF

[4] = biological target: T4, Alpha-1A adrenergic receptor (Homo sapiens, UniProt P35348); test: Agonist potency against cloned human alpha 1A adrenoceptor expressed in rat-1 fibroblasts.; type: functional
T4 sequence (P35348 whole entry): T1 sequence (whole entry)

[5] = biological target: T3, Alpha-1B adrenergic receptor; test: Concentration required for 50% inhibition of binding against human Alpha-1B adrenergic receptor
[6] = biological target: T5, Alpha-1B adrenergic receptor (Homo sapiens) (UniProt P35368); test: Efficacy against alpha 1B-adrenoceptor in human expressed as phenylephrine response at the dose of 40 uM.; type: functional
T5 sequence (whole entry): T3 sequence (P35368 whole entry)

[7] = biological target: T4, Alpha-1A adrenergic receptor; test: Concentration required for 50% inhibition of binding against Alpha-1A adrenergic receptor in human
[8] = biological target: T2, Alpha-1D adrenergic receptor; test: Concentration required for 50% inhibition of binding against human Alpha-1D adrenergic receptor
[9] = biological target: T6, Alpha-1D adrenergic receptor (Homo sapiens) (UniProt P25100); test: Tested for efficacy against alpha 1D-adrenoceptor in human expressed as phenylephrine response at the dose of 40 uM; type: functional
T6 sequence (whole entry): T2 sequence (P25100 whole entry)

Row | SMILES | Max [1] [%] | pEC50 [2] | pEC50 [3] | pEC50 [4] | pIC50 [5] | Max [6] [%] | pIC50 [7] | pIC50 [8] | Max [9] [%]
1 | CCC(C)OC(=O)c1ccccc1NCC1=NCCN1 (configuration not stated) | 96 | < 5.30 | < 5.30 | 8.90 | – | – | – | – | –
2 | O=C(NC1CC1)c1ccccc1NCC1=NCCN1 | 99 | < 5.30 | 6.60 | 7.80 | 5.65 | 50 | 5.98 | 5.77 | –
3 | CC(C)(C)OC(=O)c1ccccc1NCC1=NCCN1 | 96 | < 5.30 | 7.20 | 8.10 | – | 81 | – | – | –
4 | O=C(OC1CCCC1)c1ccccc1NCC1=NCCN1 | 58 | < 5.30 | < 5.30 | 7.40 | – | – | – | – | –
5 | CNC(=O)c1ccccc1NCC1=NCCN1 | 104 | 8.00 | 8.80 | 8.60 | 6.16 | 99 | 6.67 | 7.05 | 115
6 | O=C(OC1CCCCC1)c1ccccc1NCC1=NCCN1 | – | < 5.30 | < 5.30 | < 5.30 | – | – | – | – | –
7 | CCC(C)NC(=O)c1ccccc1NCC1=NCCN1 (configuration not stated) | 82 | < 5.30 | < 5.30 | 6.30 | – | – | – | – | –
8 | COC(=O)c1ccccc1NCC1=NCCN1 | 110 | 9.30 | 9.40 | 9.10 | – | 107 | – | – | 80
9 | CCC(CC)OC(=O)c1ccccc1NCC1=NCCN1 | 94 | < 5.30 | < 5.30 | 7.70 | – | – | – | – | –
10 | CCOC(=O)c1ccccc1NCC1=NCCN1 | 104 | 7.20 | 6.80 | 7.90 | – | 105 | – | – | 41
11 | O=C(NC1CCC1)c1ccccc1NCC1=NCCN1 | – | < 5.30 | < 5.30 | < 5.30 | – | – | – | – | –
12 | CC(C)COC(=O)c1ccccc1NCC1=NCCN1 | 68 | 6.60 | 7.10 | 6.30 | – | 90 | – | – | 59
13 | CCN(CC)C(=O)c1ccccc1NCC1=NCCN1 | 105 | < 5.30 | 5.70 | 7.50 | 5.23 | 32 | 6.07 | 5.18 | –
14 | O=C(c1ccccc1NCC1=NCCN1)N1CCCC1 | 105 | < 5.30 | 6.50 | 6.90 | – | 79 | – | – | –
15 | CCCNC(=O)c1ccccc1NCC1=NCCN1 | 104 | 6.80 | 7.10 | 8.10 | – | 77 | – | – | 69
16 | O=C(c1ccccc1NCC1=NCCN1)N1CCCCC1 | 105 | 6.40 | 7.10 | 6.40 | – | 106 | – | – | 88
17 | c1ccc(C2CC2)c(OCC2=NCCN2)c1 [CIRAZOLINE] | 93 | – | 7.20 | 7.90 | – | 72 | – | – | 31
18 | c1ccc2c(CC3=NCCN3)cccc2c1 [NAPHAZOLINE] | 72 | < 5.30 | < 5.30 | 7.20 | – | – | – | – | –
19 | Cc1cc(C(C)(C)C)c(O)c(C)c1CC1=NCCN1 | 74 | – | – | – | – | – | – | – | –
20 | CCN(C)C(=O)c1ccccc1NCC1=NCCN1 | 105 | 6.20 | 6.60 | 7.30 | 4.98 | 98 | 5.69 | 5.17 | 69
21 | CC(C)NC(=O)c1ccccc1NCC1=NCCN1 | 102 | 6.50 | 6.90 | 7.30 | – | 95 | – | – | 59
22 | CC(C)CNC(=O)c1ccccc1NCC1=NCCN1 | 58 | 7.80 | 7.90 | 7.10 | – | 90 | – | – | 31
23 | CCCCOC(=O)c1ccccc1NCC1=NCCN1 | 114 | 7.80 | 7.60 | 8.00 | – | 63 | – | – | 31
24 | CC(C)OC(=O)c1ccccc1NCC1=NCCN1 | 100 | < 5.30 | < 5.30 | 8.50 | 5.75 | – | 6.65 | 5.70 | –
25 | CCCCNC(=O)c1ccccc1NCC1=NCCN1 | 103 | < 5.30 | < 5.30 | 7.70 | 5.71 | – | 6.33 | 5.83 | –
26 | CN(C)C(=O)c1ccccc1NCC1=NCCN1 | 104 | 6.70 | 7.10 | 7.70 | – | 93 | – | – | 58
27 | O=C(NC1CCCC1)c1ccccc1NCC1=NCCN1 | – | < 5.30 | < 5.30 | < 5.30 | – | – | – | – | –
28 | CCCN(CC)C(=O)c1ccccc1NCC1=NCCN1 | 115 | < 5.30 | < 5.30 | 7.00 | – | – | – | – | –
29 | CCNC(=O)c1ccccc1NCC1=NCCN1 | 102 | 7.10 | 6.70 | 7.90 | – | 64 | – | – | 33
